Data published in PMC8230474, “Synthesis of Novel Acyl Derivatives of 3-(4,5,6,7-Tetrabromo-1H-benzimidazol-1-yl)propan-1-ols—Intracellular TBBi-Based CK2 Inhibitors with Proapoptotic Properties” (International Journal of Molecular Sciences, 2021).

Experiments:
Format in all cases: cell-based, human
MCF-7 cells [1] = assay: Cleaved PARP1 Western blot, MCF-7; details: MCF-7, 72 h treatment, compound at its EC50
Experimental: In order to evaluate the proapoptotic properties of the newly synthesized derivatives, we analyzed the level of cleaved PARP1 [c-PARP1, nuclear poly (ADP-ribose) polymerase 1], the hallmark of apoptotic cells.
Considering the lack of significant effect of the tested compounds in MCF-7 cells after 24-h treatment, we additionally evaluated c-PARP1 level in this cell line after 72 h of treatment. […] It should be noted that the highest level of c-PARP up to almost 20-fold higher than in the control was detected in the cell culture treated with a derivative 6b.
The MCF-7 cells growing exponentially were seeded at 4.8 × 10^5 cells in 6-cm-diameter plates. Subsequently, compounds were added in a final concentration of 0.5% DMSO. […] The protein concentration was determined using Bradford assay. […] Equal amounts of total protein (10 to 20 μg) were analyzed by SDS-PAGE, and subsequently, Western blotting was performed using primary antibodies in blocking buffer containing either 3% BSA (bovine serum albumin) or 3% milk in TBS-T (Tris-buffered saline (10 mM Tris-HCl (pH 8), 150 mM NaCl) containing 0.1% Tween 20 or 0.2% Triton X-100) for 1 h. […]
(§1) For densitometry, immunoblots were quantified using the Fiji distribution of the ImageJ 1.52a software (National Institutes of Health, Bethesda, MD, USA, and the University of Wisconsin, Madison, WI, USA). […]

MCF-7 cells [2] = assay: Cell cycle progression by flow cytometry, MCF-7; details: MCF-7, 72 h, compound at its EC50
MDA-MB-231 cells = assay: Annexin V-FITC/PI flow cytometry, MDA-MB-231; details: compound at its EC50
Experimental: Similar to the results obtained for MCF-7 cells, compound 6b acted in MDA-MB-231 cells as an effective inducer of apoptosis with the amount of apoptotic cells equal to 31.5% and 49% after 24 h and 72 h of treatment, respectively.
(§2) MCF-7 cells were seeded in six-well plates at 1.5 × 10^5 cells/well. […] Then, the plates were incubated for 24 h or 72 h. After exposure to the examined compounds, the floating cells were collected, and monolayer cell culture was trypsinized. The cells were centrifugated at 200× g at 4 °C for 5 min, washed twice in cold phosphate-buffered saline (PBS), and subsequently suspended in binding buffer at 1 × 10^6 cells/mL. Subsequently, 100-μL aliquots of the cell suspension were labeled according to the kit manufacturer’s instructions. Briefly, annexin V-fluorescein isothiocyanate and propidium iodide (BD Biosciences, Pharmingen, San Diego, CA, USA) were added to the cell suspension, and the mixture was vortexed and then incubated for 15 min at RT in the dark. A cold binding buffer (900 μL) was then added and the cells were vortexed again and kept on ice. Flow cytometric measurements were performed within 1 h after labeling. Viable, necrotic, early, and late apoptotic cells were detected by flow cytometry using CyFlow Cube 8 (Sysmex, Norderstedt, Germany) flow cytometer.

MCF-7 cells [3] = assay: Annexin V-FITC/PI flow cytometry, MCF-7; details: MCF-7, 72-h treatment, compound at its EC50
Experimental: Additionally, assaying annexin V-binding to phosphatidylserine by means of flow cytometry confirmed that derivatives 3c and 6a–c induced apoptosis in both cell lines (Figure 9, Figure S3).
as §2

[4] = test system: protein kinase CK2 in MDA-MB-231 cells; assay: Intracellular inhibition of CK2, Western blot of p-Ser529 p65 and p-Ser129 Akt1, MDA-MB-231; details: MDA-MB-231, 24 h treatment, compound at its 72-h EC50, relative to untreated control
Excerpt: We observed an inhibition of CK2 in both cell lines; however, the lower efficiency of CK2 inhibition was detected in MCF-7 considering the extent of Akt1 phosphorylation. The relative level of the phosphorylation of the tested proteins in MDA-MB-231 cells was in the range of 0.32 to 0.80 for p-Ser529 p65 and 0.41 to 0.73 for p-Ser129 Akt1, whereas in MCF-7 cells it was in the range of 0.33 to 0.78 for p-Ser529 p65 and 0.82 to 1.23 for p-Ser129 Akt1, respectively. The lowest phosphorylation levels of the tested proteins were detected in MDA-MB-231 cells for compound 6b with the relative level of 0.41 for Ser129 Akt1 as well as for compound 6c with the relative level of 0.32 for p-Ser529 p65. Among the tested proteins, the lowest extent of phosphorylation in MCF-7 cells was detected for 6b with the relative level of 0.33 for p-Ser529 p65, and for 6a with the relative level of 0.82 for Ser129 Akt1.
The MCF-7 cells growing exponentially were seeded at 4.8 × 10^5 cells in 6-cm-diameter plates. Subsequently, compounds were added in a final concentration of 0.5% DMSO. […] The protein concentration was determined using Bradford assay. […]
as §1

SMILES	level of c-PARP1 relative to control (MCF-7 cells [1])	cells in G1 (MCF-7 cells [2]) [%]	cells in G2M (MCF-7 cells [2]) [%]	cells in S (MCF-7 cells [2]) [%]	apoptotic cells (MDA-MB-231 cells; MDA-MB-231, 24 h treatment) [%]	apoptotic cells (MDA-MB-231 cells; MDA-MB-231, 72 h treatment) [%]	apoptotic cells (early and late apoptosis) (MCF-7 cells [3]) [%]	relative level of p-Ser129 Akt1 [4]
CCCCCCCC(=O)OCCCn1cnc2c(Br)c(Br)c(Br)c(Br)c21 [Compound 3c, 3-(4,5,6,7-Tetrabromo-1H-benzimidazol-1-yl)propyl octanoate]	significant increase	59.4	11.0	29.6	32.5	50.5		
CCCCCC(=O)OCCCn1c(C)nc2c(Br)c(Br)c(Br)c(Br)c21 [Compound 6b, (4,5,6,7-Tetrabromo-2-methyl-1H-benzimidazol-1-yl)propyl hexanoate]	~20 fold	50.1	19.9	30.0	31.5	49	57.5	0.41
